How the values were obtained:
[1] = system: cytotrophoblasts from the placenta; details: FIG. 1 and WO 2005/110462; cited from earlier work
[2] = system: pregnant mice; test: COMT knockout mouse model of pre-eclampsia, administration of 2-ME to pregnant mice; type: in vivo; details: administration of 2-ME to mice, FIG. 12
Experimental: FIG. 4 is a schematic of the experimental design for evaluating the role of COMT pre-eclampsia in mice.
FIG. 5 is a graph showing the number of dead embryos on Day 17 of pregnancy in mice with the indicated genotype (WT=wild type; Ko=mice with the COMT gene knocked out; +2me indicates the addition of 2-ME 2 ng/day).

Q: For `COc1cc2c(cc1O)CC[C@@H]1[C@@H]2CC[C@]2(C)[C@@H](O)CC[C@@H]12` [2-ME, 2-methoxyestradiol], which “expression of HIF-1α” value [1] is on record?
A: decreases the expression of HIF-1α

Q: And the “expression of VEGF, PlGF, VEGF Receptor 1 (VEGFR1) and sFlt-1” value [1]?
A: dramatic decrease

Q: What about the abnormal development [2] of the same compound?
A: does not alter the litter size or cause abnormal development

Q: What about the litter size [2] of the same compound?
A: does not alter the litter size
